{
  "source": "patent US20090232866A1",
  "about": "“Oligopeptides as coating material for medical products” (priority 2003, published 2009)",
  "system": "coronary arteries of pigs",
  "experiment": "Balloon angioplasty and stent implantation in pig coronary arteries, IVUS assessment of neointimal proliferation after 4 weeks",
  "assay_type": "in vivo, Domestic pigs",
  "conditions": "local administration via perfusion balloon, 4 weeks after balloon angioplasty and stent implantation, 7 pigs per group",
  "note": "*: point of attachment. CH2Cl = ClC*",
  "data": [
    {"substance": "Ac-Tyr-Val-Ala-Asp-chloromethylketone (Ac-YVAD-CH2Cl) [Ac-YVAD-CMK]", "values": [
      {"measurement": "reduction of maximum plaque area in comparison with the negative control group", "setting": "fraction of control value", "result": "approximately ⅓"},
      {"measurement": "reduction of plaque volume in comparison with the negative control group", "setting": "fraction of control value", "result": "approximately ⅙"},
      {"measurement": "reduction of the stenotisized area in comparison with the negative control group", "setting": "percent of control value", "result": "approximately 40%"}
    ]}
  ]
}
